Measured values: US8344009B2, “Substituted phenoxy thiazolidinediones as estrogen related receptor-á modulators” (priority 2007, dated 2013)
Marks after values point to notes of the source that are not given here.

Key:
[1] = molecular target: T1, ERR1 (also known as ERR-α or ERR-1) (Homo sapiens, UniProt P11474); assay: TR-FRET assay (disruption of co-activator peptide binding to ERR1 LBD); assay type: biochemical
T1 sequence (P11474 193-421 limits assumed): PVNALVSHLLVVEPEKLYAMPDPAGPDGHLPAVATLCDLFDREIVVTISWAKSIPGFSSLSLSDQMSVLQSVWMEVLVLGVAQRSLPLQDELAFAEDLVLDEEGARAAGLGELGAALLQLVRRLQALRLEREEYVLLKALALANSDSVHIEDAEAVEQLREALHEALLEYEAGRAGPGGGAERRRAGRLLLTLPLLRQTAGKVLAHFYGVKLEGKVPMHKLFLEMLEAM
Experimental: Time-Resolved Fluorescence Resonance Energy Transfer (TR-FRET) experiments were performed to examine the functional response of ERR1 (also known as ERR-α or ERR-1) ligands. The TR-FRET assay described herein relied on the conformation of ERR1 for binding to a co-activator peptide: when a test compound binds to ERR1 and alters its conformation, it can disrupt the binding of the co-activator peptide. The components of this homogeneous secondary assay included: the ^6His-tagged-ERR1LBD, a GST-labeled-hSRC2 co-activator polypeptide and a fluorescent donor/acceptor pair from CIS bio international htrf/bioassays (Bedford, Mass.) using both an α-GST Europium Cryptate (Eu) label and an α^6His-XL665 (allophycocyanin) fluorophore.
Reactions were allowed to reach equilibrium at 25° C. for 4-18 hours before collecting data on the Analyst from LJL Biosystems (Molecular Devices Sunnyvale, Calif.). […] Dose response curves were fitted using a hyperbolic equation and the data reported is the average of 3 independent experiments.

C57/BL6 male mice = assay: C57/Bl6 diet induced obesity mouse model; assay type: in vivo
Text: C57/B16 mice placed on a high fat diet are characterized by hypertriglyceridemia, impaired glucose tolerance and develop hepatic steatosis. Forty C57/BL6 male mice were received at seven weeks of age, allowed to acclimate for one week, placed on high fat diet (Test Diet 58Y1 60% of the calories from fat) for 6 weeks, and then single housed on the same diet for an additional five weeks. Body mass composition and insulin were used to randomize the animals into three groups. […] Ten additional animals were maintained on a low fat diet (4% calories from fat) and during the course of the study were given vehicle orally once a day. Blood was collected from the tail to evaluate glucose, triglyceride, FFA and insulin levels. Body weight and body composition were also recorded. Upon necropsy animals were bled through the orbital sinus under CO2:O2 anesthesia, sacrificed, and several tissues were collected and frozen in liquid nitrogen for storage at −80° C. for further use. Serum plasma samples were prepared by centrifugation in EDTA containing tubes, transferred to 96 well plates and stored at −80° C. Insulin, FFA and triglyceride levels were obtained via Day 10 tail bleed. On day fourteen an OGTT (Oral Glucose Tolerance Test) was done to determine glucose disposal rates in C57B16 mice treated with compound.

ZDF fa/fa male rats = assay: ZDF diabetic rat model at 0.08, 0.4, 2 and 10 mpk; assay type: in vivo; conditions: for % Hb1Ac / FFA (NEFA) / Glucose / Triglycerides / cholesterol / ketone: 28 day ZDF efficacy study; for circulating glucose levels upon intraperitoneal delivery of insulin (ITT): FIG. 10
Text: Briefly, sixty-five ZDF fa/fa male rats were received at four weeks of age and allowed to acclimate for one week. At five week of age the animals were single housed in cages in a temperature-controlled room with 12-hour light/dark cycle. They were allowed ad libitum access to water and food and throughout the study were maintained on a Purina 5008 diet. […] Animals were given Compound 1 orally once a day for 28 days in the morning at 0.08, 0.4, 2.0 and 10 mpk. The vehicle used for Compound 1 in this study consisted of 15% VE-TEPG, 30% PEG400 and 55% water. Food intake, body weight, glucose, insulin, triglyceride and free fatty acid levels were monitored throughout the study using blood collected from the tail vein. At day 16 of the study an insulin tolerance test (ITT) was done to evaluate peripheral insulin sensitivity. On day 22 an OGTT was done to assess glucose disposal rates. On the day of the necropsy the rats were bled through the orbital sinus under CO2:O2 anesthesia. Animals were sacrificed and several tissues were collected, frozen in liquid nitrogen and stored at −80° C. Serum plasma samples were prepared by centrifugation in EDTA containing tubes, transferred into 96 well plates and stored at −80° C.

[2] = 10 mpk once a day, HFD, 10 days
[3] = 10 mpk, after 14 days of treatment
[4] = 30 mpk once a day, HFD, 10 days
[5] = 30 mpk, after 14 days of treatment

SMILES: COc1cc(/C=C2\SC(=O)NC2=O)ccc1Oc1ccc(C#N)cc1C(F)(F)F [Compound 1, 4-[4-(2,4-Dioxo-thiazolidin-5-ylidenemethyl)-2-methoxy-phenoxy]-3-trifluoromethyl-benzonitrile]
- EC50 [1]: 54 nM
- FFA (C57/BL6 male mice; [2]): 0.38* mEq/L
- Insulin (C57/BL6 male mice; [2]): 1.4* μg/L
- Triglyceride (C57/BL6 male mice; 10 mpk once a day, HFD, 10 days, tail bleed): 58** mg/dL
- AUC 0-60 min of glucose in OGTT (C57/BL6 male mice; [3]): 15077 mg/dL/1 hr
- AUC 0-120 min of glucose in OGTT (C57/BL6 male mice; [3]): 27984 mg/dL/2 hr
- 3-hydroxy-butyrate (C57/BL6 male mice; 10 mpk, treated for 18 days): 6.0 ×10−5
- FFA (NEFA) (C57/BL6 male mice; 10 mpk, treated for 18 days): 0.49 mEq
- Glucose (C57/BL6 male mice; 10 mpk, treated for 18 days): 176 mg/dL
- LDL (C57/BL6 male mice; 10 mpk, treated for 18 days): 12 mg/dL
- Triglyceride (C57/BL6 male mice; 10 mpk, treated for 18 days): 123 mg/dL
- FFA (C57/BL6 male mice; [4]): 0.40* mEq/L
- Insulin (C57/BL6 male mice; [4]): 1.3* μg/L
- Triglyceride (C57/BL6 male mice; 30 mpk once a day, HFD, 10 days, tail bleed): 59* mg/dL
- AUC 0-60 min of glucose in OGTT (C57/BL6 male mice; [5]): 14425* mg/dL/1 hr
- AUC 0-120 min of glucose in OGTT (C57/BL6 male mice; [5]): 28540 mg/dL/2 hr
- 3-hydroxy-butyrate (C57/BL6 male mice; 30 mpk, treated for 18 days): 9.1* ×10−5
- FFA (NEFA) (C57/BL6 male mice; 30 mpk, treated for 18 days): 0.38* mEq
- Glucose (C57/BL6 male mice; 30 mpk, treated for 18 days): 174 mg/dL
- LDL (C57/BL6 male mice; 30 mpk, treated for 18 days): 7* mg/dL
- Triglyceride (C57/BL6 male mice; 30 mpk, treated for 18 days): 58*** mg/dL
- plasma glucose following an oral glucose tolerance test (C57/BL6 male mice; FIG. 2 and Table VI, after 14 days of treatment): reduces fasting plasma glucose following an oral glucose tolerance test
- Body weight change (0-28 day) (ZDF fa/fa male rats; 0.08 mpk orally once a day): 71.7
- Total food intake (0-28 days) (ZDF fa/fa male rats; 0.08 mpk orally once a day): 804.5
- % Hb1Ac (ZDF fa/fa male rats; 0.08 mpk): 10.1%
- FFA (NEFA) (ZDF fa/fa male rats; 0.08 mpk): 1.2 mM
- Glucose (ZDF fa/fa male rats; 0.08 mpk): 444 mg/dL
- Triglycerides (ZDF fa/fa male rats; 0.08 mpk): 770 mg/dL
- cholesterol (ZDF fa/fa male rats; 0.08 mpk): 118 mg/dL
- ketone (ZDF fa/fa male rats; 0.08 mpk): 162 µmol/L
- Body weight change (0-28 day) (ZDF fa/fa male rats; 0.4 mpk orally once a day): 61.9
- Total food intake (0-28 days) (ZDF fa/fa male rats; 0.4 mpk orally once a day): 792.3
- % Hb1Ac (ZDF fa/fa male rats; 0.4 mpk): 10.0%
- FFA (NEFA) (ZDF fa/fa male rats; 0.4 mpk): 0.61 mM
- Glucose (ZDF fa/fa male rats; 0.4 mpk): 419 mg/dL
- Triglycerides (ZDF fa/fa male rats; 0.4 mpk): 672 mg/dL
- cholesterol (ZDF fa/fa male rats; 0.4 mpk): 119 mg/dL
- ketone (ZDF fa/fa male rats; 0.4 mpk): 113 µmol/L
- Body weight change (0-28 day) (ZDF fa/fa male rats; 2.0 mpk orally once a day): 80.4
- Total food intake (0-28 days) (ZDF fa/fa male rats; 2.0 mpk orally once a day): 792.6
- % Hb1Ac (ZDF fa/fa male rats; 2.0 mpk): 8.8%
- FFA (NEFA) (ZDF fa/fa male rats; 2.0 mpk): 0.87 mM
- Glucose (ZDF fa/fa male rats; 2.0 mpk): 376 mg/dL
- Triglycerides (ZDF fa/fa male rats; 2.0 mpk): 605 mg/dL
- cholesterol (ZDF fa/fa male rats; 2.0 mpk): 117 mg/dL
- ketone (ZDF fa/fa male rats; 2.0 mpk): 95* umol/L
- Body weight change (0-28 day) (ZDF fa/fa male rats; 10 mpk orally once a day): 95.4
- Total food intake (0-28 days) (ZDF fa/fa male rats; 10 mpk orally once a day): 771.4
- % Hb1Ac (ZDF fa/fa male rats; 10.0 mpk): 7.7%
- FFA (NEFA) (ZDF fa/fa male rats; 10.0 mpk): 0.75 mM
- Glucose (ZDF fa/fa male rats; 10.0 mpk): 274* mg/dL
- Triglycerides (ZDF fa/fa male rats; 10.0 mpk): 506 mg/dL
- cholesterol (ZDF fa/fa male rats; 10.0 mpk): 121 mg/dL
- ketone (ZDF fa/fa male rats; 10.0 mpk): 85* umol/L
- circulating glucose levels upon intraperitoneal delivery of insulin (ITT) (ZDF fa/fa male rats): reduction in circulating glucose levels
- circulating glucose levels upon intraperitoneal delivery of insulin (ITT) (ZDF fa/fa male rats; listed as compound 1): normalizing glucose levels at the 30 minute time point
- AUC of glucose during the ITT (ZDF fa/fa male rats; FIG. 10 right panel, 0-60 and 0-120 minute time point): reduction of AUC of glucose
- fasting glucose levels (ZDF fa/fa male rats; FIG. 11, after a 4 and 16 hour fast): reduction in fasting glucose levels
- plasma glucose following an oral glucose tolerance test (ZDF fa/fa male rats; FIG. 12, OGTT day 22): reducing fasting plasma glucose
- fed plasma glucose levels (ZDF fa/fa male rats; FIG. 13, first three weeks of the study): lowering of fed plasma glucose levels
